Numbered stars: 1 amine (or outer) side, 2 acyl side, 3 side chain; on linkers, the order of the positions; unused ones are H or OH. Bridge positions count the residues as written; N and C are the ends. Square brackets hold non-standard residues; d marks the D form. Side chains are listed from the residue outwards. Peptide text beside a SMILES is read from it. * marks the point of attachment. C20 diacid = O=C(O)CCCCCCCCCCCCCCCCCCC(=O)*; C18 diacid = O=C(O)CCCCCCCCCCCCCCCCC(=O)*; γGlu = O=C(O)[C@H](CCC(=O)[*:2])N[*:1]; Aib = CC(C)(N)C(=O)O
Legend:
in vivo = conditions: male, Sprague-Dawley, rat, 20 nmol/kg
Method: PK studies were performed to determine the half-life (T1/2) of test peptides. T1/2 describes the time taken for the maximum plasma concentration (Cmax) of a test substance to halve its steady-state concentration when in circulation.
Male SD rats were purchased from Si Bei Fu Laboratory Animal Technology Co. Ltd (China). The animals were 6-8 weeks old with body weights of 200-300 g on the dosing date. The animals were housed in a 12-hour light/12-hour dark cycle environment and were fasted overnight before dosing. The body weight of the animals were recorded before dosing, 24 h and 48 h post dosing . Animals had free access to food and drinks, and the food consumption was quantified every day.
Test articles were administered at 20 nmol/kg. Blood samples were collected from each animal via Jugular vein.
The blood samples were transferred into eppendorf low binding tube containing K2 EDTA. Above 0.150 mL blood were collected at each time point. Blood samples were centrifuged at 4,000 g for 5 minutes at 4° C. to obtain plasma. The plasma samples were stored frozen at −75±15° C. until analysis.
Concentrations of the test articles in the plasma samples were analyzed using a LC-MS/MS method. Data acquisition was performed by LabSolution version 5.89 software (Shimadzu, Kyoto, Japan). Data statistics were performed using Excel 97-2003 software. The pharmacokinetic parameters of test articles were calculated using a non-compartmental approach with Phoenix™ VVinNonlin® 6.1.
The following pharmacokinetic parameters were calculated, whenever possible from the plasma concentration versus time data: • IV administration: T1/2, C0, AUClast, AUCinf, MRTinf, Cl, Vss, Number of Points for Regression. • SC administration: Tmax, Cmax, AUClast, AUCinf, MRTinf, F, Number of Points for Regression.

lean rats = assay: Rat acute food intake study; assay type: in vivo; conditions: lean male Sprague Dawley rats, 20 nmol/kg subcutaneously
Method in brief: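 Male Sprague Dawley rats (n=7/group), fasted 6 h, received 20 nmol/kg test compound or 60 nmol/kg pramlintide subcutaneously 30 min before food return at dark onset. Food intake recorded automatically in home cages over 3 days, binned hourly and analysed as cumulative dark-period intake; body weight taken daily.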

[1] = target: T1, rat amylin receptor (calcitonin receptor co-expressed with receptor activity modifying protein, RAMP3) (Rat AMYR3) (Rattus norvegicus, UniProt P32214+Q9JJ73); assay: cAMP production in HEK cells with stable recombinant expression of rat amylin receptor (Rat AMYR3); assay type: cell-based; conditions: assay buffer with 0.1% BSA
T1 construct: expressed in transfected cells
T1 sequence (P32214 25-516): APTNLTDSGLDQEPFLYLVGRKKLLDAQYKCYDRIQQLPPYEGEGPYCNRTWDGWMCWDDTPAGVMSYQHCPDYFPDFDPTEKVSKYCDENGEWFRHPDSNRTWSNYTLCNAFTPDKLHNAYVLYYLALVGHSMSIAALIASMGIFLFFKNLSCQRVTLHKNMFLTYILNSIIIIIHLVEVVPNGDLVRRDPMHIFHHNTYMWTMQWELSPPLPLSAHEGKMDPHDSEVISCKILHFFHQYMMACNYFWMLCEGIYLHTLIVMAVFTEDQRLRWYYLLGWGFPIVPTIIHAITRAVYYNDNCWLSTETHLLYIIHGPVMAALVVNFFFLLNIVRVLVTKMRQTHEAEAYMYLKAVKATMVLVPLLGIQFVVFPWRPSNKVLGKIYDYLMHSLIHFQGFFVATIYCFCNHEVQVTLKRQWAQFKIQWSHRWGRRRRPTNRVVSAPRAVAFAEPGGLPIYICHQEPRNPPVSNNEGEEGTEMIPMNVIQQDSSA
T1 sequence (Q9JJ73 23-147 partner): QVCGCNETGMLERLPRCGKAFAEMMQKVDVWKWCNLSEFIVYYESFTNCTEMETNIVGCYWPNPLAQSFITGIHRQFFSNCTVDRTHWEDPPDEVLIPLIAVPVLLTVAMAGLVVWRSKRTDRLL
Method in brief: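 Thawed cells in HBSS/0.1% BSA/25 mM HEPES pH 7.4 with 0.5 mM IBMX were incubated with peptides 30 min at room temperature; cAMP read by HTRF. EC50 from 4-parameter fit of % activation relative to maximal amylin or calcitonin effect.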

Compound | half-life (in vivo; iv) [h] | half-life (in vivo; sc) [h] | Cummulative food intake (% vehicle treated intake) At 12 h (lean rats) [% vehicle treated intake] | Cummulative food intake (% vehicle treated intake) At 24 h (lean rats) [% vehicle treated intake] | Cummulative food intake (% vehicle treated intake) At 48 h (lean rats) [% vehicle treated intake] | EC50 [1] [pM]
CC[C@H](C)[C@H](NC(=O)[C@H](C)NC(=O)[C@@H]1CCCN1C(=O)[C@H](Cc1ccccc1)NC(=O)[C@H](CC(N)=O)NC(=O)C(C)(C)NC(=O)[C@H](CO)NC(=O)[C@H](CO)NC(=O)[C@H](Cc1c[nH]cn1)NC(=O)[C@@H](NC(=O)[C@H](CC(C)C)NC(=O)[C@H](Cc1ccccc1)NC(=O)[C@H](CC(N)=O)NC(=O)[C@H](C)NC(=O)[C@H](CC(C)C)NC(=O)[C@H](CCCNC(=N)N)NC(=O)[C@H](CCC(N)=O)NC(=O)[C@@H](NC(=O)[C@H](C)NC(=O)[C@@H]1CSSC[C@H](NC(=O)[C@@H](N)CCCCNC(=O)CC[C@H](NC(=O)CC[C@H](NC(=O)CCCCCCCCCCCCCCCCC(=O)O)C(=O)O)C(=O)O)C(=O)N[C@@H](CC(N)=O)C(=O)N[C@@H]([C@@H](C)O)C(=O)N[C@@H](C)C(=O)N[C@@H]([C@@H](C)O)C(=O)N1)[C@@H](C)O)C(C)C)C(=O)N[C@@H](CC(C)C)C(=O)N[C@@H](CO)C(=O)N1CCC[C@H]1C(=O)N[C@H](C(=O)N[C@@H](CC(N)=O)C(=O)N[C@H](C(=O)NCC(=O)N[C@@H](CO)C(=O)N[C@@H](CC(N)=O)C(=O)N[C@H](C(=O)N[C@@H](Cc1ccc(O)cc1)C(N)=O)[C@@H](C)O)C(C)C)[C@@H](C)O [Peptide 9, K(γE-γE-C18diacid)[CNTATC]ATQRLANFLVHSS(Aib)NFPAILSPTNVGSNTY-amide] (H-K([γGlu-γGlu-C18 diacid])CNTATCATQRLANFLVHSS[Aib]NFPAILSPTNVGSNTY-NH2; disulfide 2-7) | 5.9 | 7.8 | 21.9 | 30.8 | 56.5 | 17.8
CC[C@H](C)[C@H](NC(=O)[C@@H]1CCCN1C(=O)CNC(=O)[C@H](Cc1ccccc1)NC(=O)[C@H](CC(N)=O)NC(=O)[C@H](CC(N)=O)NC(=O)[C@H](CO)NC(=O)[C@H](CO)NC(=O)[C@H](Cc1c[nH]cn1)NC(=O)[C@@H](NC(=O)[C@H](CC(C)C)NC(=O)[C@H](Cc1ccccc1)NC(=O)[C@H](CC(N)=O)NC(=O)[C@H](C)NC(=O)[C@H](CC(C)C)NC(=O)[C@H](CCCNC(=N)N)NC(=O)[C@H](CCC(N)=O)NC(=O)[C@@H](NC(=O)[C@H](C)NC(=O)[C@@H]1CSSC[C@H](NC(=O)[C@H](CCCCN)NC(=O)CC[C@H](NC(=O)CCCCCCCCCCCCCCCCCCC(=O)O)C(=O)O)C(=O)N[C@@H](CC(N)=O)C(=O)N[C@@H]([C@@H](C)O)C(=O)N[C@@H](C)C(=O)N[C@@H]([C@@H](C)O)C(=O)N1)[C@@H](C)O)C(C)C)C(=O)N[C@@H](CC(C)C)C(=O)N1CCC[C@H]1C(=O)N1CCC[C@H]1C(=O)N[C@H](C(=O)N[C@@H](CC(N)=O)C(=O)N[C@H](C(=O)NCC(=O)N[C@@H](CO)C(=O)N[C@@H](CC(N)=O)C(=O)N[C@H](C(=O)N[C@@H](Cc1ccc(O)cc1)C(N)=O)[C@@H](C)O)C(C)C)[C@@H](C)O [Peptide 112] ({C20 diacid-γGlu}-KCNTATCATQRLANFLVHSSNNFGPILPPTNVGSNTY-NH2; disulfide 2-7) | 11.8 | 19 | 15.8 | 15.9 | 22.1 | 16
